Data reported in ChEMBL document CHEMBL1139746, “Enzyme inhibition potency enhancement by active site metal chelating and hydrogen bonding induced conformation-restricted cyclopropanecarbonyl derivatives” (Bioorg Med Chem Lett, 2006).

Key:
[1] = molecular target: Dihydroorotate dehydrogenase (quinone), mitochondrial (Rattus norvegicus, UniProt Q63707); assay: Inhibition of rat DHODH
[2] = molecular target: 4-hydroxyphenylpyruvate dioxygenase (Sus scrofa, UniProt Q02110); assay: Inhibition of pig HPPD
Sequence of 4-hydroxyphenylpyruvate dioxygenase (Q02110 whole entry): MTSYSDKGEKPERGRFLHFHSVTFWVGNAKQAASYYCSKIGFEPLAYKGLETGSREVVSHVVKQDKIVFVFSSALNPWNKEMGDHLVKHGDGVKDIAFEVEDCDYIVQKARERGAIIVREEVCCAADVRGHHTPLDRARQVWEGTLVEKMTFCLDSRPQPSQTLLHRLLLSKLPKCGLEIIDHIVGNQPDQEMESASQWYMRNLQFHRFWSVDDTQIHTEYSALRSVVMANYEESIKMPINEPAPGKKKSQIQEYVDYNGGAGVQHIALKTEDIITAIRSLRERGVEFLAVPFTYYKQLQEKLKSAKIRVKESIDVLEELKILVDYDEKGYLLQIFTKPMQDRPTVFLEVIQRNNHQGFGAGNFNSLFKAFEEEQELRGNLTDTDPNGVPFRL

Sequence of Dihydroorotate dehydrogenase (quinone), mitochondrial (Q63707 whole entry): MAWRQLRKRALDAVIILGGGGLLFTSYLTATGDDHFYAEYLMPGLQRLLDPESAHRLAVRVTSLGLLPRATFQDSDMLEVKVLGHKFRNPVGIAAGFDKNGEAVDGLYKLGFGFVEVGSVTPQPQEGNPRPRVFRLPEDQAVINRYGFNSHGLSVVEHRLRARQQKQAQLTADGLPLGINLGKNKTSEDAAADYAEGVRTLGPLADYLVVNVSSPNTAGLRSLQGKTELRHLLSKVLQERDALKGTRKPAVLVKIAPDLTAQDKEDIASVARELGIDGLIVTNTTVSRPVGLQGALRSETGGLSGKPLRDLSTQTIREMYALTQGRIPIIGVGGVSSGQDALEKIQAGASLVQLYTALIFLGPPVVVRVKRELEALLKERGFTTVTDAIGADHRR

IC50 [1] [µM]	IC50 [2] [µM]	Compound
0.295	–	CC(C)/C(O)=C(\C#N)C(=O)Nc1ccc(C(F)(F)F)cc1
–	322	O=C(c1c(O)c2ccccc2oc1=O)C1CC1
–	21	O=C1CCCC(O)=C1C(=O)C1CCC1
–	33.1	O=C1CCCC(O)=C1C(=O)C1CCCC1
